Entries after “also recorded” stand apart in the source; their conditions may differ.
Legend:
human platelets = experiment: Electron microscopy (HR-LVSEM, TEM) of platelet shape changes; type: cell-based; conditions: 100 μM
Method: HR-LVSEM was utilized for topographical imaging of the platelet surface membrane, as previously reported (D'Cruz et al., 1998). […] Treated platelets were then stimulated with collagen (10 μg/mL) or thrombin (0.1 U/mL) for 10 seconds (FIGS. 3A-3F). 3% glutaraldehyde was added to stop the reaction. Samples were prepared for HR-LVSEM as previously described (D'Cruz et al., 1998) and analyzed using a Hitachi S-900 SEM instrument (Hitachi Instruments, Gaithersburg, Md.) at an accelerating voltage of 2 kV and […].
Samples were then prepared for TEM as previously described (White, 1983). Briefly, 0.1% glutaraldehyde was added to stop the reaction. Following a brief centrifugation, the sample pellets were layered with 3% glutaraldehyde for 40 minutes at room temperature. The samples were then postfixed in 1% OsO4 for 1 hour at 4° C., rinsed three times in distilled water at room temperature, dehydrated in a graded ethanol series (25, 50, 75, 90, 95 and 100%) and 100% propylene oxide. The samples were embedded in Embed 812 (Electron Microscopy Science, Washington, Pa.). Silver sections were picked up on mesh grids, stained 10 minutes in 1% uranyle acetate/70% ethanol, and 10 minutes in Reynold's lead citrate. […] True magnifications were determined by photographing a calibration grid at each magnification step on the microscope and using this scale to determine final print enlargements.

mice = experiment: Platelet plug formation and clotting time after retro-orbital venupuncture in mice; type: in vivo; conditions: for clotting time % Control / Mean Clotting Time: C57BL/6 mice; for Mean Clotting Time: n = 3
Method: Mice were placed in a tube holder and tail bleeding was performed with a 2 mm cut from the protruding tail tip, the tail was placed vertically into 10 mL normal saline in a 37° C. water bath and bleeding times determined as previously described (Teng et al., 1997). Platelet plug formation and clotting times on the eye after retro-orbital venupuncture were evaluated using published methods (Sheu et al., 1995).
The blood of XID mice clotted approximately two minutes later than the CBA control mice. Following this pattern, blood from chronically treated mice also clotted two minutes later than control. […]

[1] = Pharmacokinetics in mice (HPLC plasma levels); conditions: mouse, in vivo
Method: All collected blood samples were heparinized and centrifuged at 7,000xg for 5 minutes in a microcentrifuge to obtain plasma. The plasma samples were stored at −20° C. until analysis.
The analytical column was equilibrated and eluted under isocratic conditions utilizing a flow rate of 1.0 mL/min at ambient temperature. The wavelength of detection was set at 294 nm. Peak width, response time, and slit were set at >0.03 min, 0.55 sec, and […], respectively. […] Following centrifugation at 300xg for 5 minutes, the supernatant was used for HPLC analysis using a system comprised of a Hewlett Packard (HP) series 1100 instrument equipped with an automated electronic degasser, a quaternary pump, an autosampler, an automatic thermostatic column compartment, diode array detector and a computer with a Chemstation software program for data analysis (Chen and Uckun, 1999; Malaviya et al., 2000). All extraction procedures were carried out at room temperature.
The unweighed linear regression analysis of the standard curves was performed by using the CA-Cricket Graph III computer program, Version 1.0 (Computer Association, Inc., Islandia, N.Y.). […] Pharmacokinetic modeling and pharmacokinetic parameter estimations were carried out using the pharmacokinetics software, WinNonlin Program, Professional version 3.0 (Pharsight Inc., Mountain view, Calif.) (Chen and Uckun, 1999; Malaviya et al. 2000; Uckun et al., 1999).
The elimination half-life was estimated by linear regression analysis of the terminal phase of the plasma concentration time profile. The area under the concentration time curve (AUC) was calculated by the linear trapezoidal rule between the first (0 hours) and last sampling time plus C/k, where C is the concentration at the last sampling time and k is the elimination rate constant. The systemic clearance (CL) was determined by dividing the does by the AUC (Chen and Uckun, 199; Malaviya et al., 2000; Uckun et al., 1999).
A one-compartment, first order pharmacokinetic model was fit into the pharmacokinetic data. The numbers represent the average values estimated from the composite plasma concentration-time curve for pooled data. The mean±SEM values are indicated in parentheses. The values for the apparent volume of distribution (Vc) and systemic clearance (CL) were not corrected for bioavailability. t½=terminal elimination half-life; tmax=the time required to reach the maximum plasma drug concentration after i.p. administration.

platelets = experiment: Inositol-1,4,5-trisphosphate production in collagen-stimulated platelets; type: cell-based, human
Method: Collagen stimulation was terminated by the addition of ice-cold 20% perchloric acid. Inositol-1,4,5,-trisphosphate (Ins-1,4,5-P3) levels were measured by using a D-myo-[^3H]inositol-1,4,5-trisphosphate assay system purchased from Amersham (Arlington Heights, Ill.), as reported (Uckun et al., 1991) (FIG. 2B). This highly sensitive assay is based on the competition between nonradiolabeled Ins-1,4,5-P3 in the cellular extracts and a fixed quantity of a high specific activity [^3H] Ins-1,4,5-P3 tracer for a limited number of binding sites on a Ins-1,4,5-P3-specific and sensitive bovine adrenal binding protein (Uckun et al., 1991).
Platelets were stimulated at 37 degrees C. with 2 μg/ml collagen for various times. Activation was stopped by the addition of ice cold 20% perchloric acid. The amount of inositol 1,4,5-triphosphate production was measured using a detection kit from Amersham.

[2] = 40 mg/kg, after retroorbital venupuncture

C/C(O)=C(\C#N)C(=O)Nc1cc(Br)ccc1Br [LFM-A13, α-cyano-β-hydroxy-β-methyl-N-(2,5-dibromophenyl)-propenamide]
collagen-induced pseudopod formation (human platelets; 30 min, collagen 10 μg/mL, 10 seconds): inhibited collagen-induced pseudopod formation; also recorded: no pseudopods were observed | thrombin-induced shape changes (human platelets; thrombin 0.1 U/mL): did not inhibit the thrombin-induced shape changes | clotting (eye clot) time (mice; [2]): 2.6 ± 0.4 min | local platelet plug (eye plug) formation time (mice; [2]): 45 ± 4 s | clotting time % Control (mice; 25 mg/kg chronic 36 days): 231% | Mean Clotting Time (mice; 25 mg/kg chronic 36 days): 3.7 min | clotting time % Control (mice; 40 mg/kg acute 1 hour): 164% | Mean Clotting Time (mice; 40 mg/kg acute 1 hour): 2.6 min | AUC ([1]; ip, 10 mg/kg): 66.3 ± 3 µM·h | Cmax ([1]; ip, 10 mg/kg): 94 ± 8 µM | AUC ([1]; ip, 20 mg/kg): 183 ± 14 µM·h | Cmax ([1]; ip, 20 mg/kg): 243 ± 16 µM | AUC ([1]; ip, 25 mg/kg): 308 ± 31 µM·h | Cmax ([1]; ip, 25 mg/kg): 383 ± 35 µM | AUC ([1]; ip, 40 mg/kg): 653 ± 47 µM·h | Cmax ([1]; ip, 40 mg/kg): 640 ± 44 µM | AUC ([1]; ip, 50 mg/kg): 1020 ± 31 µM·h | Cmax ([1]; ip, 50 mg/kg): 940 ± 16 µM | AUC ([1]; iv, 25 mg/kg): 384 ± 30 µM·h | Cmax ([1]; iv, 25 mg/kg): 731 ± 22 µM | % control inositol 1,4,5-triphosphate production (peak response) (platelets; 100 μM LFM-A13 alone, no collagen): 75 % control | % control inositol 1,4,5-triphosphate production (peak response) (platelets; 100 μM LFM-A13 and 2 μg/ml collagen): 75 % control | Ins-1,4,5-P3 levels between 30 and 60 seconds after collagen stimulation (platelets; 100 μM pretreatment): remained at baseline | collagen-stimulated PI-PLC activity (platelets; 100 μM, 30 min, 2 μg/ml collagen): inhibited collagen-stimulated PI-PLC activity | Ins-1,4,5-P3 levels (platelets; 100 μM, 30 min pretreatment, 30 seconds after collagen stimulation): 17.8±1.4 pmols/10^9 platelets | inhibition at 100 µM (platelets; Homo sapiens, Platelet, read-out: % inhibition of inositol 1,4,5-triphosphate production): 100%
